Reference: PubChem BioAssay (NCI)
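Values below derive from 48-hour exposures of cells grown in 96-well plates, with endpoints linearly interpolated between the two concentrations bracketing the appropriate inhibition level. Definition used: TGI = concentration required for complete inhibition of growth.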 *1 amine or outer side, *2 acyl side, *3 side chain or, on linkers, in order; H or OH if unused. Where a SMILES comes first, the peptide text is derived from it. Bridges are numbered along the chain shown (N, C = ends). [ ]: non-standard residue; d: D form. The star is where a group is joined. ξ: configuration not given here. X34 = O=C(C(CCCCNO[*:3])N[*:1])[*:2]; Fmoc = O=C(OCC1c2ccccc2-c2ccccc21)*; ξW = NC(Cc1c[nH]c2ccccc12)C(=O)O; ξP = O=C(O)C1CCCN1

Assays:
Assay in all cases: growth of human tumour cells (NCI), 48 h
[1] = system: HT29 colon
[2] = system: 786-0 renal
[3] = system: SK-MEL-28 melanoma
[4] = system: NCI-H23 lung
[5] = system: NCI/ADR-RES ovarian
[6] = system: TK-10 renal
[7] = system: IGROV1 ovarian
[8] = system: CAKI-1 renal
[9] = system: OVCAR-5 ovarian
[10] = system: ACHN renal
[11] = system: RXF 393 renal
[12] = system: SF-539 CNS
[13] = system: UACC-62 melanoma
[14] = system: K-562 leukemia
[15] = system: COLO 205 colon
[16] = system: SNB-75 CNS
[17] = system: HOP-92 NSCLC
[18] = system: OVCAR-8 ovarian
[19] = system: SNB-19 CNS
[20] = system: OVCAR-3 ovarian

| SMILES | TGI [1] [µM] | TGI [2] [µM] | TGI [3] [µM] | TGI [4] [µM] | TGI [5] [µM] | TGI [6] [µM] | TGI [7] [µM] | TGI [8] [µM] | TGI [9] [µM] | TGI [10] [µM] | TGI [11] [µM] | TGI [12] [µM] | TGI [13] [µM] | TGI [14] [µM] | TGI [15] [µM] | TGI [16] [µM] | TGI [17] [µM] | TGI [18] [µM] | TGI [19] [µM] | TGI [20] [µM] |
| --- | --- | --- | --- | --- | --- | --- | --- | --- | --- | --- | --- | --- | --- | --- | --- | --- | --- | --- | --- | --- |
| COc1cc(/C=C2/C(=O)N(C(=O)c3ccccc3O)N=C2C)cc(OC)c1OC | > 100 | > 100 | > 100 | > 21.8 | > 100 | > 100 | 4.71 | > 25.8 | > 100 | > 100 | 8.74 | 6.39 | 16.9 | > 100 | > 100 | > 100 | > 83.9 | > 100 | > 100 | 18.7 |
| COc1ccc(C2CC(c3c(O)ccc4ccccc34)=NN2c2ccc([N+](=O)[O-])cc2[N+](=O)[O-])cc1OC (stereo unspecified) | 38.3 | > 100 | > 100 | > 85.4 | 17.4 | > 100 | > 71.2 | 69.1 | > 90.6 | 92.2 | > 71.1 | > 79.8 | > 100 | 20.2 | 49 | 70.8 | 58.7 | 27.3 | > 60.3 | 58.3 |
| CCOP(=O)(OCC)/C(C#N)=C/c1cnc(-c2ccccc2)[nH]1 | > 100 | > 100 | > 100 | > 100 | > 100 |  | > 100 | > 100 | > 100 | > 100 | > 100 | > 100 | > 100 | > 100 | > 100 | > 100 | > 100 | > 100 | > 100 | > 100 |
| Cc1c(-c2nc3ccccc3[nH]2)c(=O)n(-c2ccccc2)n1C | > 100 | > 100 | > 100 | > 100 | > 100 | > 100 | > 100 | > 100 |  | > 100 | > 100 | > 100 | > 100 | > 100 | > 100 | > 100 | > 100 | > 100 | > 100 | > 100 |
| COc1cc(O)c(/C=N/N=C(\N)NO)c(OC)c1 | > 10 | > 10 | > 10 | > 10 | > 10 | > 10 | > 10 | > 10 | > 10 | > 10 | > 10 | > 10 | > 10 | > 10 | > 10 | > 10 | > 10 | > 10 | > 10 | > 10 |
| CCOc1cc(NC(C)=O)ccc1C(=O)NNC(=O)c1ccccc1OC(C)=O | > 100 | > 90.3 | > 100 | > 100 | > 78.7 | 7.03 | > 100 | > 50 | > 89.4 | > 100 | > 30.2 | > 80.7 | 37 | > 40.3 | > 77.9 | > 38.7 | > 100 | > 100 | > 100 | > 100 |
| NC(=O)CNC(=O)C1CCCN1C(=O)C1CCCCNOC(=O)CC[C@@H](NC(=O)OCC2c3ccccc3-c3ccccc32)C(=O)NC(Cc2c[nH]c3ccccc23)C(=O)N1 (stereo partly specified) (Fmoc-[dE][ξW][X34][ξP]G-NH2; ester 1-3) | > 100 | > 100 | > 100 | > 100 | > 100 | > 100 | > 100 | > 100 | > 100 | > 100 | > 100 | > 100 | > 100 | > 100 | > 100 | > 100 | > 100 | > 100 | > 100 | > 100 |
| O=C(NNC(=S)Nc1ccc(Cl)cc1)c1cc(-c2ccccc2)nc2ccccc12 | 34.9 | 17.6 | 14.1 | 17.2 | 30.7 | 21.7 | 26.7 | 20.6 | 24.4 | 22.7 | 21.9 | 11.6 | 12.6 | 93.1 | 18.2 | 39.8 | 13.6 | 29.1 | 21.7 | 8.91 |
| CCOC(=O)CNC(=O)C(CSCc1ccc(Br)cc1)NC(=O)CCC(N)C(=O)OCC (stereo unspecified) | > 50 | > 50 | > 50 | > 50 | > 50 |  | > 50 | > 50 | > 50 | > 50 | > 50 | > 50 | > 50 | > 50 | > 50 | > 50 | > 50 | > 50 | > 50 | > 50 |
| CC[C@]1(Cc2ccc(OC)c(OC)c2)CN(S(=O)(=O)c2ccc(C)cc2)C[C@@H]1OC(C)=O | > 100 | > 100 | > 100 | > 100 | > 100 | > 100 | > 100 | > 100 | > 100 | > 100 | > 100 | > 100 | > 100 | > 100 | > 100 | > 100 | > 100 | > 100 | > 100 | > 100 |
| CC(CN1c2ccccc2Sc2ccccc21)N(C)C (stereo unspecified) | 30.8 | 27.9 | 32.5 | 38.2 | 30.5 |  | 34.7 | 34.1 | 32.8 | 30.7 | 37.5 | 34 | 33.9 | 36.1 | 29.2 | 15.2 | 35.4 | 29.8 | 33 | 31.1 |
